Read-outs that look alike come from different tables or passages of the source.
Legend:
[1] = system: Phosphorylation of ERK1/2 in MIA PaCa-2 cells; assay: Phospho-ERK1/2 MSD assay in MIA PaCa-2 cells; format: cell-based; conditions: read-out: p-ERK IC50 (2 h, MiaPaCa-2; μM), 2 h compound treatment, MIA PaCa-2 cells, EGF stimulated
Summary of the method: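 Phospho-ERK1/2 measured by MSD electrochemiluminescence kit in RIPA lysates of MIA PaCa-2 cells. Cells were treated with compound titrations for 2 or 4 h at 37 °C, 5% CO2, followed by a 10 min pulse of 10 ng/mL EGF.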

[2] = biological target: GDP-bound KRAS protein (aa 1-169), containing both G12C and C118A amino acid substitutions (Homo sapiens (Human), UniProt P01116, C118A/G12C); assay: Coupled nucleotide exchange assay (SOS-mediated nucleotide exchange, AlphaScreen); format: biochemical; conditions: read-out: Coupled exchange IC50 (5 min; μM); 5 min compound pre-incubation
[3] = system: Phosphorylation of ERK1/2 in A549 cells; assay: Phospho-ERK1/2 MSD assay in A549 cells; format: cell-based; conditions: read-out: p-ERK IC50 (2 h, A549; μM), 2 h compound treatment, A549 cells, EGF stimulated
Summary of the method: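 Phospho-ERK1/2 was quantified by MSD immunoassay in RIPA lysates of MIA PaCa-2 or A549 cells. Before lysis, cells received 10 ng/mL EGF for 10 min after 2 or 4 h exposure at 37° C. to a compound concentration series.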

GDP-bound KRAS protein (aa 1-169), containing both G12C and C118A amino acid substitutions, sequence (P01116 other isoform, or with tags, fused parts or gaps G12C/C118A): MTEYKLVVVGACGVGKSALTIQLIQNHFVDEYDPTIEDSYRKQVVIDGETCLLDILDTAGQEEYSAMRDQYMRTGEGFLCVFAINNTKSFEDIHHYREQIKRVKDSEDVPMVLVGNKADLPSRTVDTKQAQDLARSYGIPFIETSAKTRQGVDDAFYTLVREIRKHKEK

Compound | IC50 ([1]; Homo sapiens, MIA PaCa-2, 2 h) [µM] | IC50 [2] [µM] | IC50 ([3]; Homo sapiens, A549, 2 h) [µM] | IC50 [1] [µM] | IC50 [3] [µM]
C=CC(=O)N1C[C@H](C)N(c2nc(=O)n(-c3c(C)ccnc3C(C)C)c3nc(-c4cc(C)ccc4F)c(F)cc23)C[C@H]1C (atropisomer, axis not shown; (M)) [Example 94-4, (M)-4-[(2S,5R)-2,5-dimethyl-4-prop-2-enoyl-piperazin-1-yl]-6-fluoro-7-(2-fluoro-5-methyl-phenyl)-1-(2-isopropyl-4-methyl-3-pyridyl)pyrido [2,3-d]pyrimidin-2-one] | 0.218 | 0.222 | > 7.5 | – | –
C=CC(=O)N1C[C@H](C)N(c2nc(=O)n(-c3c(C)ccnc3C(C)C)c3nc(-c4cc(Cl)ccc4F)c(F)cc23)C[C@H]1C (atropisomer, axis not shown; (M)) [Example 94-5, (M)-7-(5-chloro-2-fluoro-phenyl)-4-[(2S,5R)-2,5-dimethyl-4-prop-2-enoyl-piperazin-1-yl]-6-fluoro-1-(2-isopropyl-4-methyl-3-pyridyl)pyrido [2,3-d]pyrimidin-2-one] | 0.265 | 0.708 | > 7.5 | – | –
C=CC(=O)N1C[C@H](C)N(c2nc(=O)n(-c3c(C)ccnc3C(C)C)c3nc(-c4ccccc4C)c(F)cc23)C[C@H]1C (atropisomer, axis not shown; (M)) [Example 94-8, (M)-4-[(2S,5R)-2,5-Dimethyl-4-prop-2-enoyl-piperazin-1-yl]-6-fluoro-1-(2-isopropyl-4-methyl-3-pyridyl)-7-(o-tolyl)pyrido[2,3-d]pyrimidin-2-one] | 0.131 | 0.255 | > 7.5 | – | –
C=CC(=O)N1C[C@H](C)N(c2nc(=O)n(-c3c(C)ccnc3C(C)C)c3nc(-c4c(C)cccc4F)c(F)cc23)C[C@H]1C (atropisomer, axis not shown; (M)) [Example 94-10, (M)-4-[(2S,5R)-2,5-Dimethyl-4-prop-2-enoyl-piperazin-1-yl]-6-fluoro-7-(2-fluoro-6-methyl-phenyl)-1-(2-isopropyl-4-methyl-3-pyridyl)pyrido [2,3-d]pyrimidin-2-] | 0.079 | 0.137 | > 7.5 | – | –
C=CC(=O)N1C[C@H](C)N(c2nc(=O)n(-c3c(C)ccnc3C(C)C)c3nc(-c4c(F)cccc4Cl)c(F)cc23)C[C@H]1C (atropisomer, axis not shown; (M)) [Example 94-12, (M)-7-(2-Chloro-6-fluoro-phenyl)-4-[(25,5R)-2,5-dimethyl-4-prop-2-enoyl-piperazin-1-yl]-6-fluoro-1-(2-isopropyl-4-methyl-3-pyridyl)pyrido [2,3-d]pyrimidin-2-one] | 0.128 | 0.184 | > 7.5 | – | –
C=CC(=O)N1C[C@H](C)N(c2nc(=O)n(-c3c(C)ccnc3C(C)C)c3nc(-c4c(F)cccc4C(N)=O)c(F)cc23)C[C@H]1C (atropisomer, axis not shown; (M)) [Example 94-19, (M)-2-[4-[(2S,5R)-2,5-Dimethyl-4-prop-2-enoyl-piperazin-1-yl]-6-fluoro-1-(2-isopropyl-4-methyl-3-pyridyl)-2-oxo-pyrido[2,3-d]pyrimidin-7-yl]-3-fluoro-benzamide] | 0.518 | 0.067 | > 7.5 | – | –
C=CC(=O)N1C[C@H](C)N(c2nc(=O)n(-c3c(C)ccnc3C(C)C)c3nc(C4CCCCC4)c(Cl)cc23)C[C@H]1C (atropisomer, axis not shown; (M)) [Example 95-1, (M)-6-Chloro-7-cyclohexyl-4-[(2S,5R)-2,5-dimethyl-4-prop-2-enoyl-piperazin-1-yl]-1-(2-isopropyl-4-methyl-3-pyridyl)pyrido[2,3-d]pyrimidin-2-one] | – | 0.053 | – | 0.318 | > 7.5
C=CC(=O)N1C[C@H](C)N(c2nc(=O)n(-c3c(C)ccnc3C(C)C)c3nc(C4CCC4)c(Cl)cc23)C[C@H]1C (atropisomer, axis not shown; (M)) [Example 95-5, (M)-6-chloro-7-cyclobutyl-4-[(2S,5R)-2,5-dimethyl-4-prop-2-enoyl-piperazin-1-yl]-1-(2-isopropyl-4-methyl-3-pyridyl)pyrido [2,3-d]pyrimidin-2-one] | 0.611 | 0.304 | > 7.5 | – | –
C=CC(=O)N1C[C@H](C)N(c2nc(=O)n(-c3c(C)ccnc3C(C)C)c3nc(-c4cc(OC(F)(F)F)ccc4F)c(Cl)cc23)C[C@H]1C (atropisomer, axis not shown; (M)) [Example 124-12, (M)-6-Chloro-4-[(2S,5R)-2,5-dimethyl-4-prop-2-enoyl-piperazin-1-yl]-7-[2-fluoro-5-(trifluoromethoxy)phenyl]-1-(2-isopropyl-4-methyl-3-pyridyl)pyrido[2,3-d]pyrimidin-2-one] | 0.231 | 0.313 | > 7.5 | – | –
C=CC(=O)N1C[C@H](C)N(c2nc(=O)n(-c3c(C)ccnc3C(C)C)c3nc(-c4cc(F)c(F)cc4O)c(Cl)cc23)C[C@H]1C (atropisomer, axis not shown; (M)) [Example 124-13, (M)-6-Chloro-7-(4,5-difluoro-2-hydroxy-phenyl)-4-[(2S,5R)-2,5-dimethyl-4-prop-2-enoyl-piperazin-1-yl]-1-(2-isopropyl-4-methyl-3-pyridyl)pyrido[2,3-d]pyrimidin-2-one] | 0.094 | 0.068 | > 7.5 | – | –
C=CC(=O)N1C[C@H](C)N(c2nc(=O)n(-c3c(C)ccnc3C(C)C)c3nc(-c4c(F)cccc4NC(C)=O)c(Cl)cc23)C[C@H]1C (atropisomer, axis not shown; (M)) [Example 129-1, (M)-N-[2-[6-Chloro-4-[(2S,5R)-2,5-dimethyl-4-prop-2-enoyl-piperazin-1-yl]-1-(2-isopropyl-4-methyl-3-pyridyl)-2-oxo-pyrido[2,3-d]pyrimidin-7-yl]-3-fluoro-phenyl]acetamide] | – | 0.054 | – | 0.124 | > 7.5
C=CC(=O)N1C[C@H](C)N(c2nc(=O)n(-c3c(C)ccnc3C(C)C)c3nc(-c4c(F)cccc4NC(=O)C(F)(F)F)c(Cl)cc23)C[C@H]1C (atropisomer, axis not shown; (M)) [Example 129-2, (M)-N-[2-[6-Chloro-4-[(2S,5R)-2,5-dimethyl-4-prop-2-enoyl-piperazin-1-yl]-1-(2-isopropyl-4-methyl-3-pyridyl)-2-oxo-pyrido[2,3-d]pyrimidin-7-yl]-3-fluoro-phenyl]-2,2,2-trifluoro-acetamide] | 0.027 | 0.065 | > 7.5 | – | –
C=CC(=O)N1C[C@H](C)N(c2nc(=O)n(-c3c(C)ccnc3C(C)C)c3nc(-c4c(F)cccc4NC(=O)CC)c(Cl)cc23)C[C@H]1C (atropisomer, axis not shown; (M)) [Example 129-4, (M)-N-[2-[6-Chloro-4-[(2S,5R)-2,5-dimethyl-4-prop-2-enoyl-piperazin-1-yl]-1-(2-isopropyl-4-methyl-3-pyridyl)-2-oxo-pyrido[2,3-d]pyrimidin-7-yl]-3-fluoro-phenyl]propanamide] | 0.058 | 0.053 | > 7.5 | – | –
C=CC(=O)N1C[C@H](C)N(c2nc(=O)n(-c3c(C)ccnc3C(C)C)c3nc(-c4ccccc4NC(=O)C(F)(F)F)c(Cl)cc23)C[C@H]1C (atropisomer, axis not shown; (M)) [Example 129-5] | 0.087 | 0.19 | > 7.5 | – | –
C=CC(=O)N1C[C@H](C)N(c2nc(=O)n(-c3c(C)ccnc3C(C)C)c3nc(-c4ccccc4NC(=O)C4CC4)c(Cl)cc23)C[C@H]1C (atropisomer, axis not shown; (M)) [Example 129-6, (M)-N-[2-[6-Chloro-4-[(2S,5R)-2,5-dimethyl-4-prop-2-enoyl-piperazin-1-yl]-1-(2-isopropyl-4-methyl-3-pyridyl)-2-oxo-pyrido[2,3-d]pyrimidin-7-yl]phenyl]cyclopropanecarboxamide] | 0.058 | 0.06 | > 7.5 | – | –
C=CC(=O)N1C[C@H](C)N(c2nc(=O)n(-c3c(C)ccnc3C(C)C)c3nc(-c4ccccc4NC(=O)OC)c(Cl)cc23)C[C@H]1C (atropisomer, axis not shown; (M)) [Example 129-7, (M)-Methyl-N-[2-[6-chloro-4-[(2S,5R)-2,5-dimethyl-4-prop-2-enoyl-piperazin-1-yl]-1-(2-isopropyl-4-methyl-3-pyridyl)-2-oxo-pyrido[2,3-d]pyrimidin-7-yl]phenyl]carbamate] | 0.025 | 0.064 | > 7.5 | – | –
C=CC(=O)N1C[C@H](C)N(c2nc(=O)n(-c3c(C)ccnc3C(C)C)c3nc(-c4c(F)cccc4NC(=O)OC)c(Cl)cc23)C[C@H]1C (atropisomer, axis not shown; (M)) [Example 129-8, (M)-Methyl N-[2-[6-chloro-4-[(2S,5R)-2,5-dimethyl-4-prop-2-enoyl-piperazin-1-yl]-1-(2-isopropyl-4-methyl-3-pyridyl)-2-oxo-pyrido[2,3-d]pyrimidin-7-yl]-3-fluoro-phenyl]carbamate] | 0.023 | 0.056 | > 7.5 | – | –
